Measurements from the NIST ThermoML archive (doi:10.1016/j.tca.2019.178334).
Numbers after ± are expanded uncertainties.

Test: excess molar enthalpy (molar enthalpy of mixing); xn = mol fraction of the nth substance listed
Details: 933 K, 101 kPa, Liquid, Calvet calorimetry

[Cl-].[Li+] [lithium chloride] + [Cl-].[K+]
Details	excess molar enthalpy [kJ/mol]
x2 = 0	0 ± 0.001
x2 = 0.026	-0.49 ± 0.041
x2 = 0.061	-1 ± 0.06
x2 = 0.073	-1.29 ± 0.069
x2 = 0.105	-1.55 ± 0.083
x2 = 0.128	-2.04 ± 0.11
x2 = 0.162	-2.27 ± 0.12
x2 = 0.188	-2.67 ± 0.14
x2 = 0.214	-2.95 ± 0.15
x2 = 0.24	-3.27 ± 0.17
x2 = 0.275	-3.6 ± 0.18
x2 = 0.298	-3.7 ± 0.19
x2 = 0.33	-4.04 ± 0.2
x2 = 0.371	-4.29 ± 0.22
x2 = 0.418	-4.43 ± 0.23
x2 = 0.427	-4.34 ± 0.22
